Data: ChEMBL document CHEMBL1667855, “Pyrrolidinone diterpenoid from Isodon excisus and inhibition of nitric oxide production in lipopolysaccharide-induced macrophage RAW264.7 cells” (Bioorg Med Chem Lett, 2011)

Assays:
RAW264.7 [1] = assay: Cytotoxicity against mouse RAW264.7 cells assessed as cell viability by cell counting-based calorimetric assay
RAW264.7 [2] = assay: Inhibition of LPS-induced NO production in mouse RAW264.7 cells assessed as nitrite formation after 24 hrs; format: functional, cell-based; details: RAW264.7, 24 h

SMILES	Activity (RAW264.7 [1])	IC50 (RAW264.7 [2]) [µM]
C[C@H](O)/C=C/[C@@]12O[C@]1(C)C[C@@H](O)CC2(C)C [CORCHOIONOL A]	Non-toxic	> 40
CC[C@H](O)/C=C/C=C/C=C/C(=O)CCCCCCCC(=O)O [CORCHORIFATTY ACID B]	Non-toxic	> 40
C=C1C(=O)[C@@]23CC[C@@H]4[C@](C)(CO[C@@H]5CCC(=O)N5)[C@@H](OC(C)=O)CC[C@@]4(C)[C@@H]2[C@@H](O)C[C@@H]1C3 [EXCISUSIN F]	Non-toxic	10.4
C=C1[C@@H]2C[C@H](O)[C@@H]3[C@@](C2)(C[C@H](O)[C@@H]2C(C)(C)[C@@H](OC(C)=O)C[C@H](O)[C@]23C)[C@@H]1OC(C)=O [INFLEXARABDONIN D]	Non-toxic	> 40
C=C1C(=O)[C@@]23CC(=O)[C@@H]4C(C)(C)[C@@H](OC(C)=O)C[C@H](O)[C@@]4(C)[C@@H]2[C@@H](O)C[C@@H]1C3 [INFLEXARABDONIN E]	Non-toxic	3.8
